How the values were obtained:
[1] = biological target: T1, Human serum albumin (HSA) (Homo sapiens, UniProt P02768); conditions: same experimental model, earlier study; cited from earlier work
T1 construct: purchased Merck (Darmstadt, Germany) A1653

CYP3A4 [2] = biological target: T2, CYP3A4 (Homo sapiens, UniProt P08684); set-up: method as in PMID 35594709; conditions: PHH, previous studies; cited from earlier work
[3] = test system: human airway Calu-3 cells; conditions: cited from earlier work
CYP3A4 [4] = biological target: T2, CYP3A4; assay: cell-based P450-Glo CYP3A4 activity assay in PHHs; assay type: in vitro ADME; set-up: human hepatic microsomes (Gibco, Biocenter, Szeged, Hungary); tissue Gibco (Biocenter, Szeged, Hungary); host or cells: human liver microsomes; conditions: 100 µM, 24 h
Protocol: To investigate the effects of inhibitor MI-2415 on CYP3A4 activities, a P450-Glo CYP450 assay (Promega, Madison, WI, USA) was used. […] This luminescent method involves adding a cell-permeable Luciferin-IPA at 3 µM, which was used in 300 µL phenol-red free Williams’ Medium E in each well in the CYP3A4 assay with an incubation time of 1 h. The luminescence activity of the product in the presence of the luciferin detection reagent was proportional to the CYP activity. For the microsomal CYP3A4 assay of inhibitors MI-1851 and MI-2415 at 25, 50, and 100 µM (n = 3), BioVision CYP assays (BioVision, Inc., Kampenhout, Belgium) were used according to the manufacturer’s instructions. The protein content of human hepatic microsomes (Gibco, Biocenter, Szeged, Hungary) was determined by the bicinchoninic acid protein assay kit (Pierce BCA kit, Thermo Fisher Scientific, Waltham, MA, USA) and a 100 µg/well protein was used in each study. […] A Victor X2 2030 fluorescence spectrometer (Perkin Elmer, Waltham, MA, USA) was used to detect the fluorescence intensities of the microsomal CYP3A4 function at wavelengths of λex/em = 535/587 nm and it was also applied to detect the luminescence signals of the cell-based CYP3A4 activity assay.

[5] = biological target: T1, Human serum albumin (HSA); assay: fluorescence quenching of human serum albumin; assay type: binding; conditions: HSA 2 μM, ligand 1-10 μM, PBS pH 7.4, λex 295 nm
Protocol: Human serum albumin (HSA) (product code: A1653) and α1-acid glycoprotein (AGP) (product code: G9885) were purchased from Merck (Darmstadt, Germany) and used as received. Fluorescence emission spectra were recorded using a Hitachi F-4500 fluorometer (Tokyo, Japan), while absorption spectra were collected by employing a Hitachi U-3900 UV–Vis spectrophotometer (Tokyo, Japan). Before the evaluation of fluorescence data, the inner-filter effects of MI-1851 and MI-2415 were corrected based on the following equation [23, 24]:(1) Icor=Iobs×e^(Aex+Aem)/2 where Icor and Iobs are the corrected and observed emission intensities, respectively; and Aex and Aem are the absorbance of the MI compounds tested at the excitation and emission wavelengths used, respectively.
To examine the potential interaction of inhibitor MI-2415 with HSA, increasing levels of the ligand (final concentrations: 0, 1, 2, 3, 4, 7, and 10 μM) were added to a standard amount of the protein (2 μM) in PBS (pH 7.4), and then the emission spectra were recorded (λex = 295 nm, λem = 340 nm). Furthermore, the quenching effects of inhibitors MI-1851 and MI-2415 (both 0, 0.25, 0.5, 1, 1.5, 2, and 2.5 μM) were also tested on the emission signal of AGP (2 μM) in PBS (λex = 285 nm, λem = 337 nm).

[6] = test system: primary human hepatocytes (PHH); assay: CCK-8 cytotoxicity assay in primary human hepatocytes; assay type: cell-based; conditions: 50 µM and 100 µM, 24 h
Protocol: (§1) PHHs were purchased from Primacyt Cell Culture Technology GmbH (Schwerin, Germany). Hepatocytes were thawed using hepatocyte recovery medium (Primacyt, Schwerin, Germany) and cells were centrifuged (10 min, 100× g, 20 °C) to remove supernatants. Cells were incubated with 5% FBS-containing plating medium for 6 h, then with FBS-free maintenance medium at 37 °C with 5% CO2 (both media were obtained from Primacyt, Schwerin, Germany) on Matrigel-coated membrane inserts (Costar Transwell-COL PTFE permeable supports, 6.5 mm inserts, 0.4 µm pore size, 24-well plate, Corning Incorporated, Kennebunk, ME, USA) for the CCK-8 and Amplex Red procedures. Maintenance medium without FBS was replaced every 24 h and the cells were incubated.
The possible cytotoxic effects of the inhibitors MI-1851 and MI-2415 (structures provided in Figure 1) in different concentrations on IPEC-J2 and those of inhibitor MI-2415 on PHHs were assessed for 24 h by performing the CCK-8 assay (Dojindo Molecular Technologies, Rockville, MD, USA). […] Following three times washing of the wells with PBS, 10 µL CCK-8 reagent mixed with 100 µL fresh Williams’ Medium E was added and the absorbance values were measured at 450 nm using the SpectraMax iD3 microplate reader (Molecular Devices, San José, CA, USA) after 2 h incubation. […]

[7] = test system: primary human hepatocytes (PHH); assay: DCFH-DA intracellular ROS assay in primary human hepatocytes; assay type: cell-based; conditions: 50 µM and 100 µM, 24 h
Protocol: as §1
The ability of inhibitors MI-1851 and MI-2415 to induce oxidative stress (ROS) within IPEC-J2 as well as of compound MI-2415 within PHHs was investigated with 2,7-dichloro-dihydro-fluorescein diacetate (DCFH2-DA). DCFH2-DA is a non-fluorescent compound that can passively diffuse across cell membranes due to its lipophilic nature. […] A Victor X2 2030 (Perkin Elmer, Waltham, MA, USA) was used to determine the fluorescence values of the samples (excitation wavelength: 485 nm, emission wavelength: 535 nm), which are directly proportional to the ROS generation.

T1 sequence (P02768 25-609): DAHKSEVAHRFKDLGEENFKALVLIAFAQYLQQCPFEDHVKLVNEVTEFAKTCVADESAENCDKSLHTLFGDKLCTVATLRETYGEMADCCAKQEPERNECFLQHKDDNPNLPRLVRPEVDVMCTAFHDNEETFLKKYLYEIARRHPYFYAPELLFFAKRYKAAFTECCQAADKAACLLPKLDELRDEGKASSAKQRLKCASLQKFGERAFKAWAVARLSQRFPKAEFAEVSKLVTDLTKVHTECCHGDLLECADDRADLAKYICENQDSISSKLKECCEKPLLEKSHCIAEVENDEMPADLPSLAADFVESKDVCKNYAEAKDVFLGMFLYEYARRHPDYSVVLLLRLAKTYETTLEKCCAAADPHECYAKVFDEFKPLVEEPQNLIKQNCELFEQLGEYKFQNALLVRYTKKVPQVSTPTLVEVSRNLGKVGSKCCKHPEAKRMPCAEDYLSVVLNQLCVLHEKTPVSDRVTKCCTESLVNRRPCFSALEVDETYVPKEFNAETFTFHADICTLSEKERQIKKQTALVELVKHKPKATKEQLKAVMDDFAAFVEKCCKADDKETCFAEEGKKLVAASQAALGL
T2 sequence (P08684 whole entry): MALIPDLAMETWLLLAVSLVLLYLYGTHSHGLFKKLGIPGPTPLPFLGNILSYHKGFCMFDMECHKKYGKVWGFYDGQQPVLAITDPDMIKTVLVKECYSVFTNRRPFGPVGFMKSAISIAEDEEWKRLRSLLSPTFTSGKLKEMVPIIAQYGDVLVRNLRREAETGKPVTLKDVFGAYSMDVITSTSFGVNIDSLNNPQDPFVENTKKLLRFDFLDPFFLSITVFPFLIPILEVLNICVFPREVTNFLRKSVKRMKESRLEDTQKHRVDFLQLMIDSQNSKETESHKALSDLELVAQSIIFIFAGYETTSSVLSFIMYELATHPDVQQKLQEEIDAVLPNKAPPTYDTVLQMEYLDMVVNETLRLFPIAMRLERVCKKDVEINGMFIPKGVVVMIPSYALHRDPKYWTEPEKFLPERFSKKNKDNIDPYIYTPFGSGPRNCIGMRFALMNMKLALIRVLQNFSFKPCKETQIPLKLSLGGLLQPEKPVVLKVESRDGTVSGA

| SMILES | effect on emission signal of HSA [1] | concentration at which significant inhibition of CYP3A4 was already observed (CYP3A4 [2]) | non-cytotoxic concentration [3] | CYP3A4 activity in PHHs (CYP3A4 [4]) | effect on emission intensity of HSA at 340 nm [5] | cell death in PHHs [6] | intracellular ROS formation in PHHs [7] |
| --- | --- | --- | --- | --- | --- | --- | --- |
| CC(C)(C)[C@H](NC(=O)[C@H](CCONC(=N)N)NC(=O)Cc1ccc(CNC(=N)N)cc1)C(=O)N[C@@H](CCONC(=N)N)C(=O)NCc1ccc(C(=N)N)cc1 [MI-1851] | did not affect the emission signal of HSA | 20 µM | up to 50 µM | – | – | – | – |
| CC(C)(C)[C@H](NC(=O)[C@H](CCONC(=N)N)NC(=O)Cc1ccc(CNC(=N)N)cc1)C(=O)N[C@@H](CCONC(=N)N)C(=O)NCc1ccc2c(c1)CN=C2N [MI-2415] | – | – | – | significantly reduced | did not influence the emission intensity of HSA | did not lead to significant cell death | did not cause a redox imbalance |

Source: paper PMC11444200, “In Vitro Evaluation of Antipseudomonal Activity and Safety Profile of Peptidomimetic Furin Inhibitors” (Biomedicines, 2024)
